Common to all, as to experiment: Epigenetic panel (BPS Bioscience)
Holding throughout (type): biochemical

One test has as its target T1, EZH2 (A677G) (Homo sapiens, UniProt Q15910, A677G).
T1 construct: purchased BPS Bioscience; Eurofins (HDAC4, 5, 7-11)
The text has this:
(§1) The selectivity of CM-444 and CM-1758 against other epigenetic targets, including histone demethylase (JMJD2A, JMJD2B, JMJD2C, JMJD2D, JMJD2E, JMJD3, JMJD1A, LSD1, Jarid1A, Jarid1B, Jarid1C, FBXL10, FBXL11, JHDM1D, JMJD1B, PHF8, LSD2 and UTX); histone acetyltransferases (GCN5, P300); histone methyltransferases (G9a, GLP, MLL1, SET7/9, SUV39H1, SUV39H2, PRMT1, PRMT3, PRMT4, PRMT5, PRMT6, PRMT8, PRMT9, NSD1, NSD2, EZH1, EZH2, SETDB1, SETD2, SET8, SUV4-20H1, SMYD2, SMYD3, DOT1L, EZH2 (A677G), EZH2 (A677G), EZH2 (A738T), EZH2 (Y641S), EZH2 (P132S), EZH2 (Y641C), EZH2 (Y641F), EZH2 (Y641H), EZH2 (Y641N)); bromodomains (ATAD2B, ATAD2A, BRD1, BRD9, BPTF/FALZ, CeCR2, BRPF3, BRD3 (BD1 + BD2), BAZ2B, WDR9, TAF1 (BD2), TAF1L (BD2), TAF1L (BD1 + BD2), BRD2 (BD1), BRD2 (BD2), BRD2 (BD1 + BD2), BRD3 (BD1), BRD3 (BD2), BRD4 (BD1), BRD4 (BD2), BRD4 (BD1 + BD2), BRDT (BD1), BRDT (BD1 + BD2), CREBBP, SMARCA2A, SMARCA4/BRG1); DNA methyltranferases (DNMT1, DNMT3A/3L and DNMT3B/3L), and sirtuin histone deacetylases (SIRT1, SIRT2, SIRT3, SIRT5 and SIRT6), were determined by BPS Bioscience (http://www.bpsbioscience.com/index.ph). Binding experiments were performed in duplicate at a concentration of 10 μM.

A further test concerns the target T2, EZH2 (P132S) (Homo sapiens, UniProt Q15910, P132S).
T2 construct: purchased BPS Bioscience; Eurofins (HDAC4, 5, 7-11)
Description: as §1

Another test has as its target T3, EZH2 (Y641F) (Homo sapiens, UniProt Q15910, Y641F).
T3 construct: purchased BPS Bioscience; Eurofins (HDAC4, 5, 7-11)
Description: as §1

In a further test the target is T4, EZH2 (Y641S) (Homo sapiens, UniProt Q15910, Y641S).
T4 construct: purchased BPS Bioscience; Eurofins (HDAC4, 5, 7-11)
Description: as §1

Another test deals with T5, FBXL10 (Homo sapiens, UniProt Q8NHM5).
T5 construct: purchased BPS Bioscience (contracted assay service)
T5 sequence (Q8NHM5 1-1336): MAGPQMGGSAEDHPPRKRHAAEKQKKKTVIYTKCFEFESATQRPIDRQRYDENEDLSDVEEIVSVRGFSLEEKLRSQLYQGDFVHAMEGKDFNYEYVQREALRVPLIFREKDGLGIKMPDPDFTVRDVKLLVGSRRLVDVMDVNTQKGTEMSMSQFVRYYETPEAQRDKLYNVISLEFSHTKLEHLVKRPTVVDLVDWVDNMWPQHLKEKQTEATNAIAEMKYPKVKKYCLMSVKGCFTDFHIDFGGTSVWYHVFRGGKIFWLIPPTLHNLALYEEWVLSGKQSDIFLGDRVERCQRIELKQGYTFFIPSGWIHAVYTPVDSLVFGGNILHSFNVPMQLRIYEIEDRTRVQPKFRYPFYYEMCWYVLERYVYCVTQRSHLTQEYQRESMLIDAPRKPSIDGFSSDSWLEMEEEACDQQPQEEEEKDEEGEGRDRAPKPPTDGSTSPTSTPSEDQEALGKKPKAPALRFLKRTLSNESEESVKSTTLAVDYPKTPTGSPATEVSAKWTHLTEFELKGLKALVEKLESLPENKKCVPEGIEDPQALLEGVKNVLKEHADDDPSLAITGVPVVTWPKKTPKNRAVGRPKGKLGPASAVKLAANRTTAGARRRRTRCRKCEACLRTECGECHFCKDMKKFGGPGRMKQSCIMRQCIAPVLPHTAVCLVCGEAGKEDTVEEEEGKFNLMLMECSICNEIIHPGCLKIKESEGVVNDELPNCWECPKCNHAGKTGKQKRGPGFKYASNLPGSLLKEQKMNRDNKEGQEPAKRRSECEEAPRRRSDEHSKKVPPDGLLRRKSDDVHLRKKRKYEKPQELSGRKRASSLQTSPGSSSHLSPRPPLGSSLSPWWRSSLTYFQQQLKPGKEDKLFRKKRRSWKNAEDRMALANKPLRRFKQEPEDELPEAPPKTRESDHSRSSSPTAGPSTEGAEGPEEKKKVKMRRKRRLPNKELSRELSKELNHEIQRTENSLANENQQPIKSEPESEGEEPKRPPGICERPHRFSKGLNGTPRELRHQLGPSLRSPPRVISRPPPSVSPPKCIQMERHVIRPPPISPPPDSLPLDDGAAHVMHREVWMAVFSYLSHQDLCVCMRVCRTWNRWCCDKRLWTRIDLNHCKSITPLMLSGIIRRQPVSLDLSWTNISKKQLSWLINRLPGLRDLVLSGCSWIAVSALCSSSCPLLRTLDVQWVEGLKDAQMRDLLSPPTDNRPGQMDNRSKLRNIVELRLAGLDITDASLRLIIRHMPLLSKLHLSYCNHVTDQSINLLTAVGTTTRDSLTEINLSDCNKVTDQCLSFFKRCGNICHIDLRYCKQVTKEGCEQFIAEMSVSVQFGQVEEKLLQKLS
Description: as §1

A further test concerns the target T6, JMJD2A (Homo sapiens, UniProt O75164).
T6 construct: purchased BPS Bioscience; Eurofins (HDAC4, 5, 7-11)
Description: as §1

In another test the target is T7, LSD1 (Homo sapiens, UniProt O60341).
T7 construct: purchased BPS Bioscience; Eurofins (HDAC4, 5, 7-11)
Description: as §1

The target in another test is T8, LSD2 (Homo sapiens, UniProt Q8NB78).
T8 construct: purchased BPS Bioscience; Eurofins (HDAC4, 5, 7-11)
Description: as §1

The target in a further test is T9, MLL1 (Homo sapiens, UniProt Q03164).
T9 construct: purchased BPS Bioscience; Eurofins (HDAC4, 5, 7-11)
Description: as §1

In another test the target is T10, SET7/9 (Homo sapiens, UniProt Q8WTS6).
T10 construct: purchased BPS Bioscience; Eurofins (HDAC4, 5, 7-11)
Description: as §1

Another test deals with T11, SETD2 (Homo sapiens, UniProt Q9BYW2).
T11 construct: purchased BPS Bioscience; Eurofins (HDAC4, 5, 7-11)
Description: as §1

The next test concerns the target T12, SMYD2 (Homo sapiens, UniProt Q9NRG4).
T12 construct: purchased BPS Bioscience; Eurofins (HDAC4, 5, 7-11)
Description: as §1

A further test has as its target T13, SUV4-20H1 (Homo sapiens, UniProt Q4FZB7).
T13 construct: purchased BPS Bioscience; Eurofins (HDAC4, 5, 7-11)
Description: as §1

T6 sequence (O75164 whole entry): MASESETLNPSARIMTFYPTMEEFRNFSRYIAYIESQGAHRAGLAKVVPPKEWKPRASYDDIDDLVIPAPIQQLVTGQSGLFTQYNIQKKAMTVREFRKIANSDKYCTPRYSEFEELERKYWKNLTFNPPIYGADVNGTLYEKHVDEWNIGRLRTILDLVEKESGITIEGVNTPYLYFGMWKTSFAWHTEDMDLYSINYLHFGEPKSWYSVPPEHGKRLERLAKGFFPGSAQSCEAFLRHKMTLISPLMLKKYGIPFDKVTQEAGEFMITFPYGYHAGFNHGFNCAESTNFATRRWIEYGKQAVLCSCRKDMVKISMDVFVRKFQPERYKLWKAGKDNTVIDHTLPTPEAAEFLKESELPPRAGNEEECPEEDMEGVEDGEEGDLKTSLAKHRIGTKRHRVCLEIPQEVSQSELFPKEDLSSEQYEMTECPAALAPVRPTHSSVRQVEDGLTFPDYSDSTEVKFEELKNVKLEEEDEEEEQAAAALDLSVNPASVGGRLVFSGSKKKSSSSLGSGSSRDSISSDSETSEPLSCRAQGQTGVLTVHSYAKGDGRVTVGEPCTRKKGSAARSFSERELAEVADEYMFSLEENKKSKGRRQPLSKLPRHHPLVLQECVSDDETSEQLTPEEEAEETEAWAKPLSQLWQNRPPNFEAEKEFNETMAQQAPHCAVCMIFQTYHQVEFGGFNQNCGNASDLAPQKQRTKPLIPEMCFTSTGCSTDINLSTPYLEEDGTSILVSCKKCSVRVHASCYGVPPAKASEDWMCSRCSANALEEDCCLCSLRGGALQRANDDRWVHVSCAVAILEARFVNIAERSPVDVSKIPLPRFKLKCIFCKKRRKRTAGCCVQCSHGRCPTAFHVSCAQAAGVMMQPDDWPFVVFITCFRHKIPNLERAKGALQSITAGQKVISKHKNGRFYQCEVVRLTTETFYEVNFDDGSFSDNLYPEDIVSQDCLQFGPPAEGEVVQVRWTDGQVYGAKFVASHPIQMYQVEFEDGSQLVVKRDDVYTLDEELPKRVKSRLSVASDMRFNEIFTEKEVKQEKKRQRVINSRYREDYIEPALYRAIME
T12 sequence (Q9NRG4 whole entry): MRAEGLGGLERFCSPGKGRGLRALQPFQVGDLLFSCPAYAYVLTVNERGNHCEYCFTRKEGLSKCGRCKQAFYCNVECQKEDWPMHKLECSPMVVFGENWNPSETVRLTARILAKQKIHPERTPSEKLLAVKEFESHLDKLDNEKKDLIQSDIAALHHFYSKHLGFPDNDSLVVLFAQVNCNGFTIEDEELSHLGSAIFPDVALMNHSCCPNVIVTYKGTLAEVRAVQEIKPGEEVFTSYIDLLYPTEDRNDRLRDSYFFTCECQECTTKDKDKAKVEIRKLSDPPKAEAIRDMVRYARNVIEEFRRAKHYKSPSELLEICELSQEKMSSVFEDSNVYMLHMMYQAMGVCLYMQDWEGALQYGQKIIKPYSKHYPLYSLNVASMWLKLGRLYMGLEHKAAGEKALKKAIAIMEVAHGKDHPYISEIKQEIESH
T2 sequence (Q15910 whole entry P132S): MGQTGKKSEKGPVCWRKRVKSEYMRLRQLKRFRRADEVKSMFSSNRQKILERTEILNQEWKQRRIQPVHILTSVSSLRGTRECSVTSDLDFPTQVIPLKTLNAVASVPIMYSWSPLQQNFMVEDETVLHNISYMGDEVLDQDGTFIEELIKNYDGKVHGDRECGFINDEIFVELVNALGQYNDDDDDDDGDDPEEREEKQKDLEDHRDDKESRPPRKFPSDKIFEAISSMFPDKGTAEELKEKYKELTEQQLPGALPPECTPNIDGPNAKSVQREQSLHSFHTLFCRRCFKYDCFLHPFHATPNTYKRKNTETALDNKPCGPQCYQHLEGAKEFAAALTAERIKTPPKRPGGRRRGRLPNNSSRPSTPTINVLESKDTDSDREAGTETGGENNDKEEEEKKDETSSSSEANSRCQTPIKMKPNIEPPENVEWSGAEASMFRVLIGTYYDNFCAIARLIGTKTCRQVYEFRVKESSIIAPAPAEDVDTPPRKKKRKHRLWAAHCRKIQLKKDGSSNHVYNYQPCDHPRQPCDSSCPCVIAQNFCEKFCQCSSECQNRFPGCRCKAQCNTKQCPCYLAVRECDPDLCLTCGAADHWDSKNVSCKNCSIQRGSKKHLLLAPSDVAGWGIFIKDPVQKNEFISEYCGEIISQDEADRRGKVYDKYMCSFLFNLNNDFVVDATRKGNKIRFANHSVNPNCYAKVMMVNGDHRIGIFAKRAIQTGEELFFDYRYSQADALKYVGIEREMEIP
T2 sequence (O75530 whole entry partner): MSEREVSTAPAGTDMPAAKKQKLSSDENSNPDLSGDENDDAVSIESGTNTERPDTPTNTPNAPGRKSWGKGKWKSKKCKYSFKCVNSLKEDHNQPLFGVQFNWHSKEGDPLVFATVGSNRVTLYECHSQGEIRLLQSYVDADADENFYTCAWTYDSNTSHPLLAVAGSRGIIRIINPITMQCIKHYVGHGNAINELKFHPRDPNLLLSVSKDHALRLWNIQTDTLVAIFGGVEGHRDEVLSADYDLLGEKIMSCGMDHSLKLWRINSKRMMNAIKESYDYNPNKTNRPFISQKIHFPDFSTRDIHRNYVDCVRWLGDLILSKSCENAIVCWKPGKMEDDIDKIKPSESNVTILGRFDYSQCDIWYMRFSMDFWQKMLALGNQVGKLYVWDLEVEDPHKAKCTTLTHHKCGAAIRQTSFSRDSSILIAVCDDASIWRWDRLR
T2 sequence (Q15022 whole entry partner): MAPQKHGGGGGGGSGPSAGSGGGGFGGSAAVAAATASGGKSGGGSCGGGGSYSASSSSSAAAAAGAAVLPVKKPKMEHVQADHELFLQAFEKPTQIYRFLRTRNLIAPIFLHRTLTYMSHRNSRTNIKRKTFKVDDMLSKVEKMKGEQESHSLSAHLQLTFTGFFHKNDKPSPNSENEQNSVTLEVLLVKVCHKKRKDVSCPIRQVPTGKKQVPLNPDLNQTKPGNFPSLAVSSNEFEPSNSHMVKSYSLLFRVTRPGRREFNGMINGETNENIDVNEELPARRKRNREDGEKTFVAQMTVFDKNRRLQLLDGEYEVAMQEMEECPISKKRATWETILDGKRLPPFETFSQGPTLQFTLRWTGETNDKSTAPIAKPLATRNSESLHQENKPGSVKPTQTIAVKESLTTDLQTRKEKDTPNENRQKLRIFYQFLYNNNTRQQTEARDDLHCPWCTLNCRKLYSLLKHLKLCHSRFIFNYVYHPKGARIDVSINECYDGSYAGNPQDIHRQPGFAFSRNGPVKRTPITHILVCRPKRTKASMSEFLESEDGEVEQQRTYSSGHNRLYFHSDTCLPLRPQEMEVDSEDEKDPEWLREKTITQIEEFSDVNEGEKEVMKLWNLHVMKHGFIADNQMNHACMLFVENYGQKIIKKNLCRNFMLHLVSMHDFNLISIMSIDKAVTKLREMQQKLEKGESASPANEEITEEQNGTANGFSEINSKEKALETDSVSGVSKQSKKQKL
T2 sequence (Q09028 whole entry partner): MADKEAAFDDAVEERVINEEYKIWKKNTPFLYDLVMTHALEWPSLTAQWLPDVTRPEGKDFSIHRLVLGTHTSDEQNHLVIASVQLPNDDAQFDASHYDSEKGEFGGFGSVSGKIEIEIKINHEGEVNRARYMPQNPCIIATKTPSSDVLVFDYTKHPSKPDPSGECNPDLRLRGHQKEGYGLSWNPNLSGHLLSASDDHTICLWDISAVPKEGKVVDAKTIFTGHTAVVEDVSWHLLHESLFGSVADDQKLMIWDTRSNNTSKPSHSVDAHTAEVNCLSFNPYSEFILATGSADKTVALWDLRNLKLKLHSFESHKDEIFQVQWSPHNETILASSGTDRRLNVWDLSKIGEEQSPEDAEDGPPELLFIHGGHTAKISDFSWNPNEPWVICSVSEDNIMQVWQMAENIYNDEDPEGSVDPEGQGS
T2 sequence (Q6ZN18 whole entry partner): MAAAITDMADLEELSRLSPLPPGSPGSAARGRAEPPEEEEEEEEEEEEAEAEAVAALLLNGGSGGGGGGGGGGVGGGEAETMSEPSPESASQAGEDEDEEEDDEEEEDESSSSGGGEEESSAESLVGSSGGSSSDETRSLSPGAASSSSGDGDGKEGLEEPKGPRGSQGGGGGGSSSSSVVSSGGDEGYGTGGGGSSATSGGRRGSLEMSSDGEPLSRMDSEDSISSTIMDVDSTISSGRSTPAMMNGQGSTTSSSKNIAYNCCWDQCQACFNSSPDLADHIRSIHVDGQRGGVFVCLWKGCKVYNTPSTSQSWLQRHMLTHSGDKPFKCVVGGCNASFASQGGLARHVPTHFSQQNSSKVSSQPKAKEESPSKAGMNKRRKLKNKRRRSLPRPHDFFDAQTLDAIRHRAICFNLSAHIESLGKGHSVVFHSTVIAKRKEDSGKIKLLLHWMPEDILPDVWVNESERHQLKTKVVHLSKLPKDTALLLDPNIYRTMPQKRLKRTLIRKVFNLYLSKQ
T4 sequence (Q15910 whole entry Y641S): as the sequence (Q15910 whole entry P132S) above, with S132P, Y641S counted along it
T4 sequence (O75530 whole entry partner): as the sequence (O75530 whole entry partner) above
T4 sequence (Q15022 whole entry partner): as the sequence (Q15022 whole entry partner) above
T4 sequence (Q09028 whole entry partner): as the sequence (Q09028 whole entry partner) above
T4 sequence (Q6ZN18 whole entry partner): as the sequence (Q6ZN18 whole entry partner) above
T10 sequence (Q8WTS6 whole entry): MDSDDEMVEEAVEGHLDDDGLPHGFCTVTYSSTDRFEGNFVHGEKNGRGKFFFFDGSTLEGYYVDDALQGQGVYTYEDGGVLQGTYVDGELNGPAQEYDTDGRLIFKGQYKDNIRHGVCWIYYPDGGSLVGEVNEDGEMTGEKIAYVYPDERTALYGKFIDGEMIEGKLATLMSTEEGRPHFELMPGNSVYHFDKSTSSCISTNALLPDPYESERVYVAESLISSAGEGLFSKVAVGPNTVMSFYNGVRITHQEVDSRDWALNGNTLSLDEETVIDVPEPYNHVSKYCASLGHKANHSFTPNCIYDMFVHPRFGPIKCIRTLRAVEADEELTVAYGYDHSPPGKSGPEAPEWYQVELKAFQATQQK

Broadly, the inhibition is the share of the control response that was lost under treatment. Low readings indicate a response near the control, high ones a response far below the control. For `COc1cc2nc(-c3cc(C)oc3C)cc(NCC3CCN(c4ncc(C(=O)NO)cn4)CC3)c2cc1OC` [CM-1758, 2-[4-[[[2-(2,5-dimethyl-3-furyl)-6,7-dimethoxy-4-quinolyl]amino]methyl] -1-piperidyl]pyrimidine-5-carbohydroxamic acid], the inhibition at 10 µM at EZH2 (A677G) was determined as 5%; on EZH2 (P132S), 0%; at EZH2 (Y641F), 1%; against EZH2 (Y641S), 24%; against FBXL10, 34%; against JMJD2A it was 20%. Besides, the inhibition at 10 µM turned out to be 20% against LSD1; 22% at LSD2; 1% on MLL1; 19% against SET7/9; 11% on SETD2; 16% against SMYD2. At SUV4-20H1, this molecule gave an inhibition at 10 µM of 1%.
As a reminder, the IC50 is the concentration at which inhibition is half-maximal. Regarding `COc1cc2nc(-c3ccc(C)o3)cc(NCC3CCN(c4ncc(C(=O)NO)cn4)CC3)c2cc1OC` [CM-444, 2-[4-[[[6,7-dimethoxy-2-(5-methyl-2-furyl)-4-quinolyl]amino]methyl]-1-piperidyl]pyrimidine-5-carbohydroxamic acid], the inhibition at 10 µM is 0% on EZH2 (A677G); 0% on EZH2 (P132S); 0% on EZH2 (Y641F); 4% against EZH2 (Y641S); 58% against FBXL10; 21% on JMJD2A. Besides, the inhibition at 10 µM against LSD1 stood at 16%; against LSD2 it was 21%; against MLL1 it was 0%; on SET7/9, 0%; against SETD2, 0%; against SMYD2, 9%. The molecule further came in with an inhibition at 10 µM at SUV4-20H1 of 2%. The molecule also gave a concentration for half-maximal inhibition (IC50) on FBXL10 of 6.7 µM.

Values taken from PMC11219871, “Epigenetic-based differentiation therapy for Acute Myeloid Leukemia” (Nature Communications, 2024).
